Consider one compound from ChEMBL document CHEMBL4145497, “Discovery of 2-aminothiazolyl berberine derivatives as effectively antibacterial agents toward clinically drug-resistant Gram-negative Acinetobacter baumanii” (Eur J Med Chem, 2018).

Common to all, as to assay type: functional
Assay [1] relates to Pseudomonas aeruginosa. Description: Antibacterial activity against drug-resistant Pseudomonas aeruginosa after 18 to 24 hrs by CLSI two fold serial dilution method.
In assay [2] the test system is Klebsiella pneumoniae. The assay can be described thus: Antibacterial activity against drug-resistant Klebsiella pneumoniae after 18 to 24 hrs by CLSI two fold serial dilution method.
For assay [3], the system named is Micrococcus luteus. The assay can be described thus: Antibacterial activity against Micrococcus luteus ATCC 4698 after 18 to 24 hrs by CLSI two fold serial dilution method.
Assay [4] has as its system Escherichia coli. The assay can be described thus: Antibacterial activity against drug-resistant Escherichia coli after 18 to 24 hrs by CLSI two fold serial dilution method.
The test system of assay [5] is Staphylococcus aureus. Description: Antibacterial activity against methicillin-resistant Staphylococcus aureus N315 after 18 to 24 hrs by CLSI two fold serial dilution method.
Assay [6] has as its system Acinetobacter baumannii. Description: Antibacterial activity against drug-resistant Acinetobacter baumannii after 18 to 24 hrs by CLSI two fold serial dilution method.
For assay [7], the system named is Candida albicans. Description: Antifungal activity against drug-resistant Candida albicans by CLSI two fold serial dilution method.
Assay [8] has as its system Escherichia coli. Description: Antibacterial activity against Escherichia coli DH52 after 18 to 24 hrs by CLSI two fold serial dilution method.
For assay [9], the system named is Candida albicans. Description: Antifungal activity against Candida albicans ATCC 76615 by CLSI two fold serial dilution method.
Assay [10] concerns Enterococcus faecalis. Description: Antibacterial activity against drug-resistant Enterococcus faecalis after 18 to 24 hrs by CLSI two fold serial dilution method.
The subject of assay [11] is Bacillus subtilis. Description: Antibacterial activity against Bacillus subtilis ATCC 21216 after 18 to 24 hrs by CLSI two fold serial dilution method.
Assay [12] concerns Escherichia coli. The assay can be described thus: Potency index, ratio of norfloxacin MIC to compound MIC for antibacterial activity against Escherichia coli DH52.
In assay [13] the test system is Saccharomyces cerevisiae. Description: Antifungal activity against Saccharomyces cerevisiae ATCC 9763 by CLSI two fold serial dilution method.
Assay [14] has as its system Cyberlindnera jadinii. Description: Antifungal activity against Candida utilis ATCC 9950 by CLSI two fold serial dilution method. To be noted: Williopsis jadinii.
The subject of assay [15] is Pichia norvegensis. The assay can be described thus: Antifungal activity against Candida mycoderma ATCC 96918 by CLSI two fold serial dilution method.
Assay [16] has as its system Pseudomonas aeruginosa. The assay can be described thus: Antibacterial activity against Pseudomonas aeruginosa ATCC 27853 after 18 to 24 hrs by CLSI two fold serial dilution method.
In assay [17] the test system is Candida parapsilosis. The assay can be described thus: Antifungal activity against Candida parapsilosis ATCC 22019 by CLSI two fold serial dilution method. Particulars: Lodderomyces parapsilosis.
In assay [18] the test system is Aspergillus fumigatus. The assay can be described thus: Antifungal activity against drug-resistant Aspergillus fumigatus by CLSI two fold serial dilution method.
In assay [19] the test system is Staphylococcus aureus. The assay can be described thus: Antibacterial activity against Staphylococcus aureus ATCC 25923 after 18 to 24 hrs by CLSI two fold serial dilution method.
The test system of assay [20] is Aspergillus flavus. Description: Antifungal activity against Aspergillus flavus ATCC 204304 by CLSI two fold serial dilution method.
Assay [21] concerns Candida tropicalis. Description: Antifungal activity against drug-resistant Candida tropicalis by CLSI two fold serial dilution method.

In brackets after ≈: the same amount, converted by molar mass.

For orientation: MIC means the least concentration at which growth counts as inhibited. High values mean weaker potency, low ones greater potency. For the compound `CCCCCCCCCCOc1c(OC)cc(/C=N/NC(N)=S)c2c1CN1CCc3cc4c(cc3C1C2)OCO4` (stereo unspecified), the MIC was 230 µM (≈ 130 µg/mL) in [1]; 230 µM (≈ 130 µg/mL) in assay [2]; 230 µM (≈ 130 µg/mL) in assay [3]; 30 µM (≈ 17 µg/mL) in assay [4]; 30 µM (≈ 17 µg/mL) in assay [5]; 10 µM (≈ 5.67 µg/mL) in assay [6]. Moreover, the minimal inhibitory concentration (MIC) in assay [7] was 60 µM (≈ 34 µg/mL); in assay [8], 30 µM (≈ 17 µg/mL); in assay [9] it was 60 µM (≈ 34 µg/mL); in assay [10], 30 µM (≈ 17 µg/mL); in assay [11], 230 µM (≈ 130 µg/mL); in [13] it was 230 µM (≈ 130 µg/mL). Also, the minimum inhibitory concentration (MIC) in assay [14] was 450 µM (≈ 255 µg/mL); in assay [15], 230 µM (≈ 130 µg/mL); in [16], 230 µM (≈ 130 µg/mL); in [17] it was 110 µM (≈ 62.3 µg/mL); in [18], 7 µM (≈ 3.97 µg/mL); in assay [19], 30 µM (≈ 17 µg/mL). Moreover, the minimum inhibitory concentration (MIC) in assay [20] came out at 450 µM (≈ 255 µg/mL); in assay [21] it was 30 µM (≈ 17 µg/mL). In addition, the Ratio in [12] came to 53.
